Results taken from patent publication US20160136295A1, “BIOMARKERS FOR TREATMENT WITH ANTI-TUBULIN CHEMOTHERAPEUTIC COMPOUNDS” (GENENTECH, INC., priority 2012, published 2016).

Experiments:
[1] = tested on: murine embryonic fibroblasts (MEFs); assay: Viability of BCL2-family-member-null MEFs by propidium iodide staining after anti-tubulin agents; format: cell-based; conditions: treated 48 hours
Procedure: (§1) The viability of cancer cell lines, and MEFs in which genes encoding IAPs had been knocked out, was analysed by using the CellTiter-Glo Luminescent Cell Viability Assay® (Promega). Cells were treated in triplicate with anti-tubulin agents for the indicated times, using dimethylsulphoxide treatment as a control. The viability of BCL2-family-member-null MEFs was analysed by propidium iodide staining, as described previously (Chen, L. et al. (2005) Molecular cell 17:393-403), after treatment with anti-tubulin agents for 48 h. Cell synchronization was achieved by culture either in serum-free medium for 12-16 h or in medium containing 2 mM thymidine for 18-24 h, release from the thymidine block with three washes in PBS, followed by culture for 8-12 h in complete growth media (compositions are described in the Supplementary Information). Cells then underwent a second thymidine block for 16-20 h, three further washes in PBS and release into complete medium containing the indicated reagents. To block MCL1 degradation, […] MG132 was added as cells entered mitotic arrest, as assessed by visual inspection. See the Examples for full methods.

Mcl-1 = Mcl-1 protein level / degradation in mitotic arrest (western blot of synchronized cells); format: cell-based, human
Procedure: as §1
(§2) Western blotting was performed essentially as described (Wertz, I. E. et al. (2004) Science (New York, N.Y 303:1371-1374). In brief, cells were lysed in corrected FLAG elution buffer (CFEB) (19.17 mM Tris (pH 7.5), 916.7 μM MgCl2, 92.5 mM NaCl and 0.1% Triton X-100) with protease and phosphatase inhibitors; in some cases 6 M urea was added. Cleared lysates were quantitated and equal amounts of proteins were reduced, alkylated, separated by SDS-PAGE, and transferred onto PVDF membranes (Invitrogen) following standard procedures. Western blotting was performed as recommended by the respective antibody manufacturers. Patient tissue and xenograft samples were lysed in 5× volume of CFEB with protease inhibitors using Fast prep 24 (MP Biologicals). Tissue lysates were cleared and 40 μg total protein was prepared for western blotting analysis as described above. Immunoprecipitations were performed with the indicated antibodies as described (Willis, S. N. et al. (2007) Science (New York, N.Y 315:856-859; Wertz, I. E. et al. (2004) Science (New York, N.Y 303:1371-1374). PP2A activity was performed on PP2A or Mcl-1 immunoprecipitates as recommended by the manufacturer (Upstate)

Mcl-1 T92 = assay: In vitro kinase reactions: percent phosphorylation of full-length recombinant Mcl-1 at T92; format: biochemical, human; conditions: single kinase reactions, peak areas of 0 and 1P, triple charged state; for Percent phosphorylation T92, AVE: average; for Percent phosphorylation T92, INJ1: sample injection 1; for Percent phosphorylation T92, INJ2: sample injection 2
Procedure: (§3) To determine the suitability of residues in Mcl-1 as kinase substrates, 10 μM of Mcl-1 was incubated with selected kinase at enzyme concentrations between 25 and 100 nM. For these reactions the Mcl-1 was dialyzed into 20 mM Phosphate, 50 mM Tris pH 7.5 150 mM NaCl, 5 mM DTT and 0.5% CHAPS. The protein solution was further supplemented with MgCl2 to 10 mM and ATP to 1 mM prior to addition of kinase. Purified recombinant kinases were purchased from Invitrogen Co. (Carlsbad, Calif.).
(§4) 10 μl of each of the Mcl-1 kinase reactions (100 pmol) were loaded onto a 4-12% Bis-Tris gel for separation by SDS-PAGE after reduction. Mcl-1 bands were excised from the gel, dehydrated (50% acetonitrile in 50 mM ammonium bicarbonate then 100% acetonitrile washes), and incubated with 0.2 μg trypsin overnight at 37° C.
(§5) Samples were injected in duplicate via autosampler onto a nanoAcquity® UPLC (Waters, Milford, Mass.) and analyzed on-line via nanospray ionization into an LTQ-Orbitrap® mass spectrometer at a concentration of 300 fmol synthetic peptide mix per injection. Areas were integrated for the isotopic and kinase phosphorylated peptides, and compared to their non-phosphorylated peptide counterparts to obtain percent phosphorylation values.

Mcl-1 S159/T163 = assay: In vitro kinase reactions: percent phosphorylation of full-length recombinant Mcl-1 at S159+T163; format: biochemical, human; conditions: for Percent phosphorylation S159/T163, AVE: average; for Percent phosphorylation S159/T163, INJ1: sample injection 1; for Percent phosphorylation S159/T163, INJ2: sample injection 2
Procedure: as §3, §4, §5

Mcl-1 T163 = assay: In vitro kinase reactions: percent phosphorylation of full-length recombinant Mcl-1 at T163; format: biochemical, human; conditions: single kinase reactions; for Percent phosphorylation T163, AVE: average of INJ1 and INJ2; for Percent phosphorylation T163, INJ1: sample injection 1; for Percent phosphorylation T163, INJ2: sample injection 2
Procedure: as §3, §4, §5

Mcl-1 S121 = assay: In vitro kinase reactions: percent phosphorylation of full-length recombinant Mcl-1 at S121; format: biochemical, human; conditions: for Percent phosphorylation S121, AVE: average of INJ1 and INJ2; for Percent phosphorylation S121, INJ1: sample injection 1; for Percent phosphorylation S121, INJ2: sample injection 2
Procedure: as §3, §4, §5

myc-Mcl-1 / FLAG-FBW7 = assay: Recruitment of myc-Mcl-1 to FLAG-FBW7 in mitotic arrest (immunoprecipitation, HeLa cells); format: cell-based, human; conditions: HeLa released into paclitaxel; agent 1 hour then 3 hour 25 μM MG-132; SP600125 25 μM, SB203580 2.65 μM, CGP74514A, roscovitine 2.5 μM
Procedure: The indicated constructs were expressed in HeLa cells with or without scramble or cdc20 RNAi, and then synchronized and released into paclitaxel. […] Cells were subsequently collected and processed as indicated.
as §2

[2] = % phos on S159+T163, CDK1 + kinase panel reactions
[3] = % phos on S159+T163, single kinase reactions

Molecule	Percent phosphorylation T92, AVE (Mcl-1 T92)	Percent phosphorylation T92, INJ1 (Mcl-1 T92)	Percent phosphorylation T92, INJ2 (Mcl-1 T92)	Percent phosphorylation S159/T163, AVE (Mcl-1 S159/T163; [2])	Percent phosphorylation S159/T163, INJ1 (Mcl-1 S159/T163; [2])	Percent phosphorylation S159/T163, INJ2 (Mcl-1 S159/T163; [2])	Percent phosphorylation S159/T163, AVE (Mcl-1 S159/T163; [3])	Percent phosphorylation S159/T163, INJ1 (Mcl-1 S159/T163; [3])	Percent phosphorylation S159/T163, INJ2 (Mcl-1 S159/T163; [3])	Percent phosphorylation T163, AVE (Mcl-1 T163)	Percent phosphorylation T163, INJ1 (Mcl-1 T163)	Percent phosphorylation T163, INJ2 (Mcl-1 T163)	Percent phosphorylation S121, AVE (Mcl-1 S121; CDK1 + kinase panel reactions)	Percent phosphorylation S121, INJ1 (Mcl-1 S121; CDK1 + kinase panel reactions)	Percent phosphorylation S121, INJ2 (Mcl-1 S121; CDK1 + kinase panel reactions)	Percent phosphorylation S121, AVE (Mcl-1 S121; single kinase reactions)	Percent phosphorylation S121, INJ1 (Mcl-1 S121; single kinase reactions)	Percent phosphorylation S121, INJ2 (Mcl-1 S121; single kinase reactions)	further results
COC(=O)Nc1nc2ccc(C(=O)c3cccs3)cc2[nH]1 [nocodazole]	–	–	–	–	–	–	–	–	–	–	–	–	–	–	–	–	–	–	killing (cell viability) ([1]; BAX−/−/BAK−/− MEFs): resistant; killing (cell viability) ([1]; wild-type MEFs): significantly more sensitive; Mcl-1 protein level in mitotic arrest (Mcl-1; synchronized cells (HeLa) released into the agent): declined markedly
MAPK14: purified recombinant kinase purchased from Invitrogen	8.94%	9.67%	8.20%	2.14%	1.84%	2.43%	4.35%	1.12%	7.57%	76.20%	79.44%	72.96%	20.58%	21.26%	19.90%	5.26%	7.22%	3.29%	–
MAPK9: purified recombinant kinase purchased from Invitrogen	2.02%	2.30%	1.74%	0.61%	0.73%	0.49%	4.82%	5.41%	4.22%	48.52%	48.92%	48.11%	11.82%	11.75%	11.89%	6.02%	6.46%	5.57%	–
C[S+]([O-])c1ccc(-c2nc(-c3ccncc3)c(-c3ccc(F)cc3)[nH]2)cc1 (centres unmarked) [SB203580]	–	–	–	–	–	–	–	–	–	–	–	–	–	–	–	–	–	–	Mcl-1 degradation in mitotic arrest (Mcl-1; HeLa released into paclitaxel, CGP74514A 2 μM, FR180204 2 μM, SP600125 25 μM, SB203580 2 μM added on entry into mitotic arrest): attenuate Mcl-1 degradation; recruitment of myc-Mcl-1 to FLAG-FBW7 in mitotic arrest (myc-Mcl-1 / FLAG-FBW7): attenuates recruitment of myc-Mcl-1 to FLAG-FBW7
